Results as given in ChEMBL document CHEMBL1914318, “Anti-hepatocellular carcinoma activity using human HepG2 cells and hepatotoxicity of 6-substituted methyl 3-aminothieno[3,2-b]pyridine-2-carboxylate derivatives: in vitro evaluation, cell cycle analysis and QSAR studies” (Eur J Med Chem, 2011).
Activity calls are given as the source filed them. The calls are words filed in the database; no cut-off is given here.

How the values were obtained:
HepG2 [1] = experiment: Growth inhibition of human HepG2 cells after 72 hrs by SRB assay; assay type: functional; conditions: HepG2, 72 h
[2] = Growth inhibition of porcine primary hepatocytes after 72 hrs by SRB assay; assay type: cell-based, Sus scrofa, Hepatocyte; conditions: pig
HepG2 [3] = experiment: Induction of cell cycle arrest in human HepG2 cells assessed as decrease in DNA content at S phase at 4.1 uM after 72 hrs by propidium iodide staining-based flow cytometric analysis; assay type: functional
HepG2 [4] = experiment: Induction of cell cycle arrest in human HepG2 cells assessed as increase in DNA content at G2/M phase at 4.1 uM after 72 hrs by propidium iodide staining-based flow cytometric analysis; assay type: functional
HepG2 [5] = experiment: Induction of cell cycle arrest in human HepG2 cells assessed as increase in sub-G1 peak at 4.1 uM after 72 hrs by propidium iodide staining-based flow cytometric analysis; assay type: functional

Row | Structure (SMILES) | GI50 (HepG2 [1]) | GI50 at 72 h [2] | Activity (HepG2 [3]) | Activity (HepG2 [4]) | Activity (HepG2 [5])
1 | COC(=O)c1sc2cc(-c3ccc(-c4cccs4)s3)cnc2c1N | 70.6 µM | 106 µM | – | – | –
2 | COC(=O)c1sc2cc(C#Cc3ccccc3)cnc2c1N | > 125 µM | 95.7 µM | – | – | –
3 | COC(=O)c1sc2cc(-c3ccoc3)cnc2c1N | > 125 µM | > 125 µM | – | – | –
4 | COC(=O)c1sc2cc(-c3cnn(C)c3)cnc2c1N | > 125 µM | > 125 µM | – | – | –
5 | COC(=O)c1sc2cc(-c3ccc4c(ccn4C)c3)cnc2c1N | 117 µM | 106 µM | – | – | –
6 | COC(=O)c1sc2cc(C#Cc3ccccc3N)cnc2c1N | > 125 µM | > 125 µM | – | – | –
7 | COC(=O)c1sc2cc(-c3ccc(C(F)(F)F)cc3)cnc2c1N | > 125 µM | > 125 µM | – | – | –
8 | COC(=O)c1sc2cc(-c3ccc(F)nc3)cnc2c1N | > 125 µM | 47 µM | – | – | –
9 | COC(=O)c1sc2cc(-c3cnc4ccccc4c3)cnc2c1N | > 125 µM | 32.5 µM | – | – | –
10 | COC(=O)c1sc2cc(-c3ccc4ccccc4c3)cnc2c1N | > 125 µM | 102 µM | – | – | –
11 | COC(=O)c1sc2cc(C#Cc3ccc(OC)cc3)cnc2c1N | > 125 µM | 76.5 µM | – | – | –
12 | COC(=O)c1sc2cc(C#Cc3cccc(N)c3)cnc2c1N | 1.2 µM | > 125 µM | Active | Active | Active
13 | COC(=O)c1sc2cc(-c3ccc(OC)nc3)cnc2c1N | > 125 µM | > 125 µM | – | – | –
14 | COC(=O)c1sc2cc(C#Cc3cccc(OC)c3)cnc2c1N | > 125 µM | > 125 µM | – | – | –
15 | COC(=O)c1sc2cc(-c3ccc(C(C)=O)cc3)cnc2c1N | > 125 µM | > 125 µM | – | – | –
16 | COC(=O)c1sc2cc(-c3cnc(OC)nc3OC)cnc2c1N | 23.8 µM | 4.4 µM | – | – | –
17 | COC(=O)c1sc2cc(-c3cc(OC)cc(OC)c3)cnc2c1N | 125 µM | 25 µM | – | – | –

Row | Structure (SMILES) | GI50 (HepG2 [1]) | GI50 at 72 h [2] | Activity (HepG2 [3]) | Activity (HepG2 [4]) | Activity (HepG2 [5])
18 | COC(=O)c1sc2cc(-c3ccc(OC)cc3)cnc2c1N | > 125 µM | > 125 µM | – | – | –
19 | Cc1c2ccncc2c(C)c2c1[nH]c1ccccc12 [ELLIPTECINE] | 2.9 µM | 3.3 µM | – | – | –
20 | COC(=O)c1sc2cc(C#Cc3ccccc3F)cnc2c1N | > 125 µM | > 125 µM | – | – | –
21 | COC(=O)c1sc2cc(-c3ccc(C#N)cc3)cnc2c1N | > 125 µM | 96.7 µM | – | – | –
22 | COC(=O)c1sc2cc(C#Cc3ccccc3OC)cnc2c1N | > 125 µM | 121 µM | – | – | –
23 | COC(=O)c1sc2cc(-c3cccnc3)cnc2c1N | > 125 µM | > 125 µM | – | – | –
24 | COC(=O)c1sc2cc(-c3ccsc3)cnc2c1N | > 125 µM | 25.2 µM | – | – | –
25 | COC(=O)c1sc2cc(C#Cc3ccc(F)cc3)cnc2c1N | > 125 µM | > 125 µM | – | – | –
26 | COC(=O)c1sc2cc(-c3ccc4ncccc4c3)cnc2c1N | > 125 µM | 14.1 µM | – | – | –
27 | COC(=O)c1sc2cc(C#Cc3ccsc3)cnc2c1N | 30 µM | 30.7 µM | – | – | –
28 | COC(=O)c1sc2cc(-c3ccccc3N)cnc2c1N | 21.7 µM | > 125 µM | – | – | –
29 | COC(=O)c1sc2cc(C#Cc3ccc(N(C)C)cc3)cnc2c1N | 67.6 µM | > 125 µM | – | – | –
30 | COC(=O)c1sc2cc(C#Cc3ccccn3)cnc2c1N | 75.7 µM | 56.9 µM | – | – | –
31 | COC(=O)c1sc2cc(C#Cc3ccc(N)cc3)cnc2c1N | 25.9 µM | > 125 µM | – | – | –
32 | COC(=O)c1sc2cc(-c3cncc4ccccc34)cnc2c1N | > 125 µM | 25.4 µM | – | – | –
33 | COC(=O)c1sc2cc(C#Cc3cccnc3)cnc2c1N | > 125 µM | > 125 µM | – | – | –
